Results: the supplement of paper PMC10307832

What was measured:
Test in all cases: relative viability (nuclei count vs DMSO), 5 days (fraction); higher = more cells survive
Dinaciclib + Tozasertib = compound: CCc1cnn2c(NCc3ccc[n+]([O-])c3)cc(N3CCCC[C@H]3CCO)nc12 [Dinaciclib] + Cc1cc(Nc2cc(N3CCN(C)CC3)nc(Sc3ccc(NC(=O)C4CC4)cc3)n2)n[nH]1 [Tozasertib] (partner 0.1 µM)
Method in brief: (§1)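 Lung cancer cell lines were seeded in 1536-well plates and dosed by pin tool the next day, with either a single drug or a fixed anchor-drug dose combined with five library-drug doses (not always all listed) spaced in √10 steps. Five days later, one step fixed the cells and stained their nuclei (final 0.05% Triton X-100, 1% formaldehyde, 1 ug/ml Hoechst), and nuclei were counted on 4× images. Relative viability is the nuclei count in treated wells divided by the count in vehicle wells, and each value is the median of duplicate plates.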

Dinaciclib + Navitoclax = compound: CCc1cnn2c(NCc3ccc[n+]([O-])c3)cc(N3CCCC[C@H]3CCO)nc12 [Dinaciclib] + CC1(C)CCC(c2ccc(Cl)cc2)=C(CN2CCN(c3ccc(C(=O)NS(=O)(=O)c4ccc(N[C@H](CCN5CCOCC5)CSc5ccccc5)c(S(=O)(=O)C(F)(F)F)c4)cc3)CC2)C1 [Navitoclax] (partner 0.5 µM)
Method in brief: as §1

Dinaciclib + OSI-027 = compound: CCc1cnn2c(NCc3ccc[n+]([O-])c3)cc(N3CCCC[C@H]3CCO)nc12 [Dinaciclib] + COc1cccc2cc(-c3nc([C@H]4CC[C@H](C(=O)O)CC4)n4ncnc(N)c34)[nH]c12 [OSI-027] (partner 0.5 µM)
Method in brief: as §1

Dinaciclib + Foretinib = compound: CCc1cnn2c(NCc3ccc[n+]([O-])c3)cc(N3CCCC[C@H]3CCO)nc12 [Dinaciclib] + COc1cc2c(Oc3ccc(NC(=O)C4(C(=O)Nc5ccc(F)cc5)CC4)cc3F)ccnc2cc1OCCCN1CCOCC1 [Foretinib] (partner 0.25 µM)
Method in brief: as §1

Dinaciclib + Pemetrexed = compound: CCc1cnn2c(NCc3ccc[n+]([O-])c3)cc(N3CCCC[C@H]3CCO)nc12 [Dinaciclib] + Nc1nc2[nH]cc(CCc3ccc(C(=O)N[C@@H](CCC(=O)O)C(=O)O)cc3)c2c(=O)[nH]1 [Pemetrexed] (partner 0.2 µM)
Method in brief: as §1

Cell Line	relative viability (Dinaciclib + Tozasertib; first compound 0.009487 µM)	relative viability (Dinaciclib + Tozasertib; first compound 0.03 µM)	relative viability (Dinaciclib + Tozasertib; first compound 0.09487 µM)	relative viability (Dinaciclib + Tozasertib; first compound 0.3 µM)	relative viability (Dinaciclib + Navitoclax; first compound 0.009487 µM)	relative viability (Dinaciclib + Navitoclax; first compound 0.03 µM)	relative viability (Dinaciclib + Navitoclax; first compound 0.09487 µM)	relative viability (Dinaciclib + Navitoclax; first compound 0.3 µM)	relative viability (Dinaciclib + OSI-027; first compound 0.009487 µM)	relative viability (Dinaciclib + OSI-027; first compound 0.03 µM)	relative viability (Dinaciclib + OSI-027; first compound 0.09487 µM)	relative viability (Dinaciclib + OSI-027; first compound 0.3 µM)	relative viability (Dinaciclib + Foretinib; first compound 0.009487 µM)	relative viability (Dinaciclib + Foretinib; first compound 0.03 µM)	relative viability (Dinaciclib + Foretinib; first compound 0.09487 µM)	relative viability (Dinaciclib + Foretinib; first compound 0.3 µM)	relative viability (Dinaciclib + Pemetrexed; first compound 0.009487 µM)	relative viability (Dinaciclib + Pemetrexed; first compound 0.03 µM)	relative viability (Dinaciclib + Pemetrexed; first compound 0.09487 µM)	relative viability (Dinaciclib + Pemetrexed; first compound 0.3 µM)
NCI-H647	0.21	0.0983	0.0486	0.0487	0.764	0.0454	0.0549	0.0648	0.499	0.206	0.0824	0.0778	0.687	0.221	0.0703	0.0856	0.149	0.0819	0.0645	0.0608
NCI-H838	0.292	0.164	0.0965	0.0959	0.901	0.226	0.13	0.118	0.436	0.219	0.0977	0.0933	0.993	0.487	0.125	0.101	0.262	0.13	0.12	0.0879
NCI-H1355	0.677	0.292	0.161	0.181	0.943	0.159	0.123	0.0999	0.435	0.212	0.159	0.151	1.12	0.268	0.148	0.166	1.04	0.976	0.449	0.116
NCI-H1395	0.782	0.301	0.24	0.239	1.06	0.263	0.299	0.267	0.631	0.311	0.251	0.215	1.18	0.335	0.269	0.252	0.505	0.231	0.213	0.26
NCI-H1437	0.356	0.165	0.141	0.131	0.972	0.108	0.106	0.0962	1	0.506	0.132	0.132	1.06	0.564	0.184	0.15	0.343	0.149	0.158	0.12
NCI-H1650	0.363	0.176	0.119	0.147	1.17	0.144	0.0928	0.139	0.426	0.15	0.136	0.123	1.1	0.336	0.167	0.14	0.366	0.335	0.152	0.0974
NCI-H1651	0.633	0.58	0.0798	0.0626	0.745	0.289	0.0312	0.0396	0.694	0.53	0.163	0.0729	0.858	0.683	0.0694	0.0598	0.596	0.51	0.112	0.0533
NCI-H1666	0.586	0.284	0.275	0.276	0.848	0.186	0.227	0.244	0.857	0.484	0.375	0.346	0.832	0.318	0.38	0.328	0.933	0.399	0.504	0.491
